The results in this text go back to ChEMBL document CHEMBL6078612, “Novel strategies based on natural products and synthetic derivatives to overcome resistance in Mycobacterium tuberculosis” (Eur J Med Chem, 2024).

For this assay, the system named is Mycobacterium tuberculosis. Description: Antimycobacterial activity against multi-drug resistant Mycobacterium tuberculosis. The class given is functional.

Usually MIC stands for the least concentration at which growth counts as inhibited. The low end stands for greater potency, the high end for weaker potency.

Values after ≈ are worked out from the molar mass of the structure shown.

The compound `CC(=O)NC[C@H]1CN(c2ccc(N3CCOCC3)c(F)c2)C(=O)O1` [LINEZOLID] displayed an MIC of 0.125 µg/mL (≈ 0.371 µM).
With H-GWLDVAKKIGKAAFNVAKNFI-OH, the MIC is below 0.98 µg/mL.
